One test has as its target human recombinant FAAH (Homo sapiens (Human), UniProt O00519). The test is described as follows: In vitro inhibition of human recombinant FAAH activity (Cayman FAAH inhibitor screening kit, AMC arachidonoyl amide hydrolysis). Format: biochemical. From the text: In brief, FAAH hydrolyzes AMC arachidonoyl amide resulting in the release of the fluorescent product, while the inhibitor will inhibit the FAAH activity and thus reduce the fluorescent signal.

The target in the next test is human recombinant MAGL (Homo sapiens (Human), UniProt Q99685). The test is described as follows: In vitro inhibition of human recombinant MAGL activity (Cayman inhibitor screening kit, 4-nitrophenylacetate hydrolysis). Format: biochemical. The following applies: human recombinant MAGL; read-out: Inhibition on MAGL activity (IC50). The source says:
The inhibitory effect of the synthetic chemicals on activity of human recombinant MAGL was studied using commercial inhibitor screening kit (Cayman Chemical). […] The absorbance of the yellow product can be analyzed using the plate reader. […]

The source of these data is US12378231B2, “Small molecules as monoacylglycerol lipase (MAGL) inhibitors, compositions and use thereof” (APOGEE PHARMACEUTICALS, INC., priority 2023, dated 2025).

human recombinant MAGL, sequence (Q99685 whole entry): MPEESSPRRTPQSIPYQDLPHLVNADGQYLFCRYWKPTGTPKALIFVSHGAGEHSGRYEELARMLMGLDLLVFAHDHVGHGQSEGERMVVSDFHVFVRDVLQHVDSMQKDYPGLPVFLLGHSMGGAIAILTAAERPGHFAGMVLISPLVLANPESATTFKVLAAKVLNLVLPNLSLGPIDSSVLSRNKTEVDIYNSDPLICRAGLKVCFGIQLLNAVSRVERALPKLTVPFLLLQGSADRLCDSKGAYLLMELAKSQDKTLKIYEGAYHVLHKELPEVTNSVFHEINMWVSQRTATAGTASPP
human recombinant FAAH, sequence (O00519 whole entry): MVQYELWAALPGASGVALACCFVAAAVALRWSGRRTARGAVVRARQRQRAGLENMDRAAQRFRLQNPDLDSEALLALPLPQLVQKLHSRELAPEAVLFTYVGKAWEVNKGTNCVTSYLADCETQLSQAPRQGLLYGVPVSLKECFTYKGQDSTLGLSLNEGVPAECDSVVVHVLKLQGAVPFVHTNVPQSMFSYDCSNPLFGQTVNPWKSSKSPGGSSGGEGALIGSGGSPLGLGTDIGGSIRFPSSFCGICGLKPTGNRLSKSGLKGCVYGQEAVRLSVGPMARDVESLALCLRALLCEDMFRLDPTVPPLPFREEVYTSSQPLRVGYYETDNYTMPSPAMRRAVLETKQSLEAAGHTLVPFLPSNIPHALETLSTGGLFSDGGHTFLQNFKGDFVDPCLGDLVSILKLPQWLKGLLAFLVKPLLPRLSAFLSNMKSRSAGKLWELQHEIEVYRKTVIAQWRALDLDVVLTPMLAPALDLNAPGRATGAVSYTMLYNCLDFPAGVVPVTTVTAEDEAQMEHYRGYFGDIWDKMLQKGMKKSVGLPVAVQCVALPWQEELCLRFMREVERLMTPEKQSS

Usually IC50 stands for the midpoint of a concentration-inhibition curve. For the compound `N#Cc1ncn(C(=O)N2CC3CC(=C(c4ccc5c(c4)COCO5)c4ccc5c(c4)COCO5)CC3C2)n1` (stereo not drawn) [Example 125, meso-1-(5-(bis(4H-benzo[d][1,3]dioxin-6-yl)methylene)octahydrocyclopenta[c]pyrrole-2-carbonyl)-1H-1,2,4-triazole-3-carbonitrile], the IC50 at human recombinant FAAH was in the range of 1000 to 10000 nM; on human recombinant MAGL it was 1 to 10 nM.

With `N#Cc1ccc2nnn(C(=O)N3CCN(C(c4ccc5c(c4)COCO5)c4ccc5c(c4)COCO5)CC3)c2c1` [Example 48, 1-(4-(bis(4H-benzo[d][1,3]dioxin-6-yl)methyl)piperazine-1-carbonyl)-1H-benzo[d][1,2,3]triazole-6-carbonitrile], the values for the IC50 on human recombinant FAAH and at human recombinant MAGL were greater than 20000 nM and 1 to 10 nM, respectively.

As to `S=C(N1CCN(C(c2ccc3c(c2)COCO3)c2ccc3c(c2)COCO3)CC1)n1cncn1` [Example 21, (4-(bis(4H-benzo[d][1,3]dioxin-6-yl)methyl)piperazin-1-yl)(1H-1,2,4-triazol-1-yl)methanethione], the IC50 was greater than 50000 nM at human recombinant FAAH and greater than 100 nM at human recombinant MAGL.

As for `N#Cc1ncn(C(=O)N2CC3(CCN(C(c4ccc5c(c4)COCO5)c4ccc5c(c4)COCO5)CC3)C2)n1` [Example 82, 1-(7-(bis(4H-benzo[d][1,3]dioxin-6-yl)methyl)-2,7-diazaspiro[3.5]nonane-2-carbonyl)-1H-1,2,4-triazole-3-carbonitrile], the IC50 was greater than 50000 nM on human recombinant FAAH and 10 to 100 nM at human recombinant MAGL.

Regarding `N#Cc1ccc2nnn(C(=O)N3CC4(CC(OC(c5ccc6c(c5)COCO6)c5ccc6c(c5)COCO6)C4)C3)c2c1` [Example 59, 1-(6-(bis(4H-benzo[d][1,3]dioxin-6-yl)methoxy)-2-azaspiro[3.3]heptane-2-carbonyl)-1H-benzo[d][1,2,3]triazole-6-carbonitrile], the IC50 at human recombinant FAAH was roughly 10000 nM; on human recombinant MAGL, 10 to 100 nM.

As for `O=C(N1CCN(C(c2ccc3ncccc3c2)c2ccc3ncccc3c2)CC1)n1nnc2ccccc21` [Example 109, (1H-benzo[d][1,2,3]triazol-1-yl)(4-(di(quinolin-6-yl)methyl)piperazin-1-yl)methanone], the IC50 on human recombinant FAAH is roughly 50000 nM; on human recombinant MAGL it was 10 to 100 nM.

For `COc1ccc(C(c2ccc(OC)cc2)N2CCN(C(=O)n3nnc4ccc(C#N)cc43)CC2)cc1` [Example 88, 1-(4-(bis(4-methoxyphenyl)methyl)piperazine-1-carbonyl)-1H-benzo[d][1,2,3]triazole-6-carbonitrile], the IC50 was roughly 50000 nM at human recombinant FAAH and 1 to 10 nM at human recombinant MAGL.

As to `O=C(N1CCN(C(c2ccc3c(c2)COCO3)c2ccc3c(c2)COCO3)CC1)n1nnc2ccc(F)cc21` [Example 39, (4-(bis(4H-benzo[d][1,3]dioxin-6-yl)methyl)piperazin-1-yl)(6-fluoro-1H-benzo[d][1,2,3]triazol-1-yl)methanone], the IC50 on human recombinant FAAH was roughly 50000 nM; on human recombinant MAGL it was 1 to 10 nM.

`COc1ccc(N(c2ccc(F)cc2)C2CCN(C(=O)n3nnc4cc(C#N)ccc43)CC2)cc1` [Example 66, 1-(4-((4-fluorophenyl)(4-methoxyphenyl)amino)piperidine-1-carbonyl)-1H-benzo[d][1,2,3]triazole-5-carbonitrile]: the IC50 at human recombinant FAAH lay within 100 to 1000 nM; at human recombinant MAGL it was 1 to 10 nM.

Regarding `COc1ccc(C(c2ccc(F)cc2)N2CCN(C(=O)n3nnc4cc(C#N)ccc43)CC2)cc1` (stereo not shown) [Example 87, 1-(4-((4-fluorophenyl)(4-methoxyphenyl)methyl)piperazine-1-carbonyl)-1H-benzo[d][1,2,3]triazole-5-carbonitrile], the IC50 was in the range of 100 to 10000 nM at human recombinant FAAH and 1 to 10 nM at human recombinant MAGL.

Regarding `Cn1ncc2cc(C(c3ccc4c(cnn4C)c3)N3CCN(C(=O)n4nnc5ccccc54)CC3)ccc21` [Example 112, (1H-benzo[d][1,2,3]triazol-1-yl)(4-(bis(1-methyl-1H-indazol-5-yl)methyl)piperazin-1-yl)methanone], the IC50 on human recombinant FAAH is roughly 50000 nM; at human recombinant MAGL, 10 to 100 nM.

For `O=C(OC(C(F)(F)F)C(F)(F)F)C1CCN(C(c2ccc3c(c2)COCO3)c2ccc3c(c2)COCO3)CC1` [Example 53, 1,1,1,3,3,3-hexafluoropropan-2-yl 1-(bis(4H-benzo[d][1,3]dioxin-6-yl)methyl)piperidine-4-carboxylate], the IC50 on human recombinant FAAH was greater than 50000 nM; on human recombinant MAGL, greater than 100 nM.

On to `CCN(CC)C(=O)N1CCN(C(c2ccc3c(c2)COCO3)c2ccc3c(c2)COCO3)CC1` [Example 18, 4-(bis(4H-benzo[d][1,3]dioxin-6-yl)methyl)-N,N-diethylpiperazine-1-carboxamide], for which the values for the IC50 at human recombinant FAAH and at human recombinant MAGL were greater than 50000 nM and greater than 100 nM, respectively.

Turning to `N#Cc1ncn(C(=O)N2CC3(C2)CN(C(c2ccc4c(c2)COCO4)c2ccc4c(c2)COCO4)C3)n1` [Example 80, 1-(6-(bis(4H-benzo[d][1,3]dioxin-6-yl)methyl)-2,6-diazaspiro[3.3]heptane-2-carbonyl)-1H-1,2,4-triazole-3-carbonitrile], the values for the IC50 at human recombinant FAAH and on human recombinant MAGL were 10000 to 50000 nM and 10 to 100 nM, respectively.

For `N#Cc1ncn(C(=O)N2CCN(C(c3ccc4occc4c3)c3ccc4occc4c3)CC2)n1` [Example 117, 1-(4-(di(benzofuran-5-yl)methyl)piperazine-1-carbonyl)-1H-1,2,4-triazole-3-carbonitrile], the IC50 fell in the range of 100 to 1000 nM on human recombinant FAAH and 1 to 10 nM at human recombinant MAGL.

With `O=C(Oc1ccccn1)N1CCN(C(c2ccc3c(c2)COCO3)c2ccc3c(c2)COCO3)CC1` [Example 20, pyridin-2-yl 4-(bis(4H-benzo[d][1,3]dioxin-6-yl)methyl)piperazine-1-carboxylate], the IC50 on human recombinant FAAH is greater than 50000 nM; on human recombinant MAGL, greater than 100 nM.

In the case of `COc1ccc(N(c2ccc3c(c2)OCO3)C2CCN(C(=O)n3nnc4cc(C#N)ccc43)CC2)cc1` [Example 73, 1-(4-(benzo[d][1,3]dioxol-5-yl(4-methoxyphenyl)amino)piperidine-1-carbonyl)-1H-benzo[d][1,2,3]triazole-5-carbonitrile], the half-inhibitory concentration (IC50) at human recombinant FAAH lay within 100 to 1000 nM; at human recombinant MAGL it was 1 to 10 nM.

In the case of `O=C(Nc1cccnn1)N1CCC(=Cc2cccc(Oc3ccc(C(F)(F)F)cn3)c2)CC1` [PF-04457845, reference compound], the values for the IC50 at human recombinant FAAH and on human recombinant MAGL were 1.9 nM and greater than 10000 nM, respectively.

In the case of `COc1cccc(C(c2cccc(OC)c2)N2CCN(C(=O)n3cnc(C#N)n3)CC2)c1` [Example 97, 1-(4-(bis(3-methoxyphenyl)methyl)piperazine-1-carbonyl)-1H-1,2,4-triazole-3-carbonitrile], the figures for the IC50 on human recombinant FAAH and at human recombinant MAGL were 1000 to 10000 nM and 1 to 10 nM, respectively.

As for `C=COc1ccc(N(c2ccc(F)cc2)C2CCN(C(=O)n3nnc4cc(C#N)ccc43)CC2)cc1` [Example 77, 1-(4-((4-fluorophenyl)(4-(vinyloxy)phenyl)amino)piperidine-1-carbonyl)-1H-benzo[d][1,2,3]triazole-5-carbonitrile], the IC50 at human recombinant FAAH was 100 to 1000 nM; at human recombinant MAGL, 1 to 10 nM.

As for `N#Cc1ccc(C(c2ccc(C#N)cc2)N2CCN(C(=O)n3nnc4cc(C#N)ccc43)CC2)cc1` [Example 101, 4,4′-((4-(5-cyano-1H-benzo[d][1,2,3]triazole-1-carbonyl)piperazin-1-yl)methylene)dibenzonitrile], the IC50 on human recombinant FAAH is greater than 50000 nM; on human recombinant MAGL it was 1 to 10 nM.

For `N#Cc1ncn(C(=O)N2CCN(C(c3ccc(-n4cccn4)cc3)c3ccc4c(c3)COCO4)CC2)n1` (stereo not shown) [Example 120, 1-(4-((4-(1H-pyrazol-1-yl)phenyl)(4H-benzo[d][1,3]dioxin-6-yl)methyl)piperazine-1-carbonyl)-1H-1,2,4-triazole-3-carbonitrile], the IC50 at human recombinant FAAH was greater than 50000 nM; on human recombinant MAGL, 1 to 10 nM.

As to `O=C(N1CCN(C(c2ccc3c(c2)COCO3)c2ccc3c(c2)COCO3)CC1)n1nnc2ccc(Br)cc21` [Example 37, (4-(bis(4H-benzo[d][1,3]dioxin-6-yl)methyl)piperazin-1-yl)(6-bromo-1H-benzo[d][1,2,3]triazol-1-yl)methanone], the IC50 at human recombinant FAAH is greater than 50000 nM; on human recombinant MAGL, 1 to 10 nM.

`N#Cc1ncn(C(=O)N2CCC(C(c3ccc4c(c3)COCO4)c3ccc4c(c3)COCO4)CC2)n1` [Example 129, 1-(4-(bis(4H-benzo[d][1,3]dioxin-6-yl)methyl)piperidine-1-carbonyl)-1H-1,2,4-triazole-3-carbonitrile]: the figures for the half-inhibitory concentration (IC50) at human recombinant FAAH and on human recombinant MAGL were 1000 to 10000 nM and 1 to 10 nM, respectively.

On to `O=C(N1CCN(C(c2ccc3c(c2)COCO3)c2ccc3c(c2)COCO3)CC1)n1cccn1` [Example 1, (4-(bis(4H-benzo[d][1,3]dioxin-6-yl)methyl)piperazin-1-yl)(1H-pyrazol-1-yl)methanone], for which the results for the IC50 on human recombinant FAAH and on human recombinant MAGL were greater than 50000 nM and greater than 100 nM, respectively.

As to `O=C(N1CCN(C(c2ccc3c(c2)COCO3)c2ccc3c(c2)COCO3)CC1)n1cncn1` [Example 10, (4-(bis(4H-benzo[d][1,3]dioxin-6-yl)methyl)piperazin-1-yl)(1H-1,2,4-triazol-1-yl)methanone], the values for the IC50 on human recombinant FAAH and on human recombinant MAGL were 1000 to 10000 nM and 10 to 100 nM, respectively.

As to `N#Cc1ccc2nnn(C(=O)N3CCC(N(c4ccc(F)cc4)c4ccc5c(c4)OCO5)CC3)c2c1` [Example 63, 1-(4-(benzo[d][1,3]dioxol-5-yl(4-fluorophenyl)amino)piperidine-1-carbonyl)-1H-benzo[d][1,2,3]triazole-6-carbonitrile], the IC50 was in the range of 100 to 1000 nM on human recombinant FAAH and 1 to 10 nM on human recombinant MAGL.

As for `CCC(CC)OC(=O)N1CCN(C(c2ccc3c(c2)COCO3)c2ccc3c(c2)COCO3)CC1` [Example 15, pentan-3-yl 4-(bis(4H-benzo[d][1,3]dioxin-6-yl)methyl)piperazine-1-carboxylate], the figures for the IC50 at human recombinant FAAH and on human recombinant MAGL were greater than 50000 nM and greater than 100 nM, respectively.

For `O=C(On1nnc2cccnc21)N1CCN(C(c2ccc3c(c2)COCO3)c2ccc3c(c2)COCO3)CC1` [Example 23, 3H-[1,2,3]triazolo[4,5-b]pyridin-3-yl 4-(bis(4H-benzo[d][1,3]dioxin-6-yl)methyl)piperazine-1-carboxylate], the IC50 on human recombinant FAAH is greater than 10000 nM; at human recombinant MAGL, greater than 100 nM.
